Patent US9771351B2, “Wnt signaling inhibitor” (KYOWA HAKKO KIRIN CO., LTD., priority 2013, dated 2017)

Experiments:
[1] = tested on: T-cell factor (TCF)-luciferase reporter using Wnt pathway as index; assay: Inhibitory activity against TCF-luciferase reporter using Wnt pathway as index (DLD-1/TCF-Luc cells); format: cell-based, human; conditions: Homo sapiens; 1 μmol/L; DLD-1/TCF-Luc cells; luciferase activity after 18 hours; read-out: Inhibition ratio (%) at 1 μmol/L
How it was run: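 Human colorectal DLD-1 cells stably carrying a TCF-responsive luciferase reporter (pGL4.27) were exposed to test compound for 18 h at 37 °C. Luciferase luminescence read; % inhibition calculated relative to control and blank wells, reported at 1 μmol/L.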

tankyrase-2 = target: T1, tankyrase-2 (Homo sapiens, UniProt Q9H2K2); assay: Tankyrase-2 enzyme inhibition test (Tankyrase-2 Chemiluminescent Assay Kit); format: biochemical; conditions: autoribosylation of GST-tankyrase-2 fusion protein, chemiluminescence
T1 construct: purchased BPS Bioscience, Inc. 80566
T1 sequence (Q9H2K2 1-1166): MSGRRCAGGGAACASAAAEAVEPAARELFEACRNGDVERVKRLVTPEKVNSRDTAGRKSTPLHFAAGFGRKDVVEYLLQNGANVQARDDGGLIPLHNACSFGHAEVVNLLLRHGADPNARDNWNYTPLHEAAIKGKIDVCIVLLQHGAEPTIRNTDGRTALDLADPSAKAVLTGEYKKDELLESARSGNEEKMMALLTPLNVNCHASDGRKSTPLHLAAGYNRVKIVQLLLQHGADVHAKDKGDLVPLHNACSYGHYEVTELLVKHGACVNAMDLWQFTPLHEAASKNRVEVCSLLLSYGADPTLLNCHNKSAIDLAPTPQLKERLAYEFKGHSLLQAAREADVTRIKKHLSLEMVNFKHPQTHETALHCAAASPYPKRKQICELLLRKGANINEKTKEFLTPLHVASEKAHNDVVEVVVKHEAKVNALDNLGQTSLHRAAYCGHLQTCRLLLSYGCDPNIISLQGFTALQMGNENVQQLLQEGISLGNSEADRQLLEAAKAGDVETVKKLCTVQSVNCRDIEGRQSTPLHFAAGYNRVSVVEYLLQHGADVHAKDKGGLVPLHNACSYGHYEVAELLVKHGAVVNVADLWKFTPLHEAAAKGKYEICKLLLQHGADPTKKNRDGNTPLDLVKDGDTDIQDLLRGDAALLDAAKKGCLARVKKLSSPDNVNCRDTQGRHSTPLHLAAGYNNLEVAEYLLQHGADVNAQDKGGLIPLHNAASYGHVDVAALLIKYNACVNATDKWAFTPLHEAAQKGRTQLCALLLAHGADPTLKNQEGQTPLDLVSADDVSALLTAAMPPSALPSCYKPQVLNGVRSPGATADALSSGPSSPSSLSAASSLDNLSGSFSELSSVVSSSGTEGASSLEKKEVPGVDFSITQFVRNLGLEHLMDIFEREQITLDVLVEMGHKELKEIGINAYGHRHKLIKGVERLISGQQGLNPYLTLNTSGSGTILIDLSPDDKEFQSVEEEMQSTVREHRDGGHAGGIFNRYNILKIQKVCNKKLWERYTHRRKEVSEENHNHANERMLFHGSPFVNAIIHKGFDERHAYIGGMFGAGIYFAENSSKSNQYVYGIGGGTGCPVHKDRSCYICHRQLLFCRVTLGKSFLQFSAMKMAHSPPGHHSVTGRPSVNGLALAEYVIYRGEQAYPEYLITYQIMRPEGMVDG
Protocol: Test Example 2: Tankyrase-2 Enzyme Inhibition Test
The enzyme activity of tankyrase-2 was evaluated using Tankyrase-2 Chemiluminescent Assay Kit (BPS Bioscience, Inc., Catalog No. 80566). The Tankyrase-2 Chemiluminescent Assay Kit is a kit for evaluating the enzyme activity of tankyrase-2 using autoribosylation of glutathione-S-transferase (GST)-tankyrase-2 fusion protein as an index. All the experimental materials except for PBS (PBST) buffer containing phosphate-buffered saline (PBS) and 0.05% Tween 20 are all included in the kit. The GST-tankyrase-2 enzyme diluted with 50 μL of 1× tankyrase buffer was added to the wells of a 96-well plate coated with glutathione. After the plate was left to stand overnight at 4° C., the plate was washed 3 times with the PBST buffer. 150 μL of blocking buffer was added thereto, and the plate was left to stand at room temperature for 30 minutes to block the wells. The plate was washed 3 times with the PBST buffer. Before the ribosylation reaction, an assay mixture containing a biotinylated substrate and a test compound diluted with 1× tankyrase buffer were mixed, whereby a reaction mixture was prepared. In order to start the ribosylation reaction, 50 μL of the reaction mixture was added to the wells. In a blank well, 1× tankyrase buffer was added in place of the reaction mixture containing a biotinylated substrate. The plate was left to stand at 30° C. for 1 hour. After the reaction, the plate was washed 3 times with the PBST buffer. Streptavidin-horseradish peroxidase (HRP) was diluted to 50-fold with the blocking buffer. The diluted streptavidin-HRP was added to the wells, and the plate was left to stand at room temperature for 30 minutes. The plate was washed 3 times with the PBST buffer. Immediately before use, 50 μL of the HRP chemiluminescent substrate A and 50 μL of the HRP chemiluminescent substrate B were mixed and 100 μL of the resulting mixture was added to the wells. The chemiluminescence was measured using a chemiluminescence measuring apparatus. The inhibition ratio was obtained according to the following formula 2. [Math. 2] Inhibition ratio (%)=100−{(chemiluminescence intensity when test compound was added)−(chemiluminescence intensity of blank)}/{(chemiluminescence intensity of control)−(chemiluminescence intensity of blank)}×100 Formula 2

Inhibition ratio (%) at 1 μmol/L (tankyrase-2): 82%
Compound: CC(=O)Nc1ccc2ncnc(N3CCC(CN4Cc5cccnc5N(c5ccnc(C#N)c5)C4=O)CC3)c2c1 [Compound 50, N-[4-(4-{[1-(2-Cyanopyridin-4-yl)-2-oxo-1,2-dihydropyrido[2,3-d]pyrimidin-3(4H)-yl]methyl}piperidin-1-yl)quinazolin-6-yl]acetamide]
inhibition at 1 µM [1]: 87%
